# Results as given in patent US20260216238A1, “TETRATHIOMOLYBDIC ACID FOR USE IN TREATING COPPER METABOLISM-ASSOCIATED DISEASES OR DISORDERS (WILSON DISEASE)” (Alexion Pharmaceuticals, Inc., priority 2023, published 2026).
# Test system: patients with Wilson disease (WD)
# Assay: UWDRS Part III total score, functional subscale and individual items (neurological examination)
# Type: in vivo, human
# Settings: for UWDRS Part III (0-175) change from baseline, Mean (SD) / UWDRS Part III Functional Subscale (0-10) change from baseline, Mean (SD): pooled Studies 301 and 201
# Procedure: The UWDRS scoring system was developed specifically for the motor and movement disorders associated with chronic copper neurotoxicity in WD. Some individual items/subscales of the UWDRS Part III (arising from a chair, gait, handwriting, and speech) in addition to the UWDRS Parts I, II, and III overall, were assessed to further define the range of burdensome signs and symptoms of WD, so as to further understand the assessment of treatment effects on patients with WD. The UWDRS scores for consciousness (Part I) and abnormal neurologic examination findings (Part III) will be determined by a trained neurologist rater who is blinded to study treatment randomization. These scores were used to provide a rigorous dataset for evaluating changes from baseline.
# Unified Wilson Disease Rating Scale (Parts I, II, and III): The UWDRS is a clinical rating scale designed to evaluate the neurological manifestations of WD that generally can be divided into 3 movement disorder syndromes: dystonic, ataxic, and Parkinsonian syndrome. The UWDRS comprises 3 parts: UWDRS Part I (level of consciousness, item 1), UWDRS Part II (a patient-reported review of daily activity items [disability], items 2 to 11), and UWDRS Part III (a detailed neurological examination, items 12 to 34).
# The UWDRS Part I and Part III were assessed by a neurologist who is blinded to the treatment randomization, while UWDRS Part II may be reported to a non-blinded member of the study team by the patient, family member, or caregiver. The UWDRS has not been formally evaluated in adolescents. However, the components of Part I (level of consciousness), Part II (patient or caregiver-reported disability) and Part III (neurologic examination findings) were not fundamentally different between adults and adolescents. Patients aged 12 years and older were expected to be able to comply with UWDRS assessments.
# Pooled results from all such participants will be integrated together into one timeline to allow analyses of changes in UWDRS, long-term copper control, and long-term safety laboratory data.
# Endpoints (directly measured non-ceruloplasmin-bound copper [dNCC], UWDRS III (rater blinded) total and individual item scores, Clinical Global Impression-Improvement [CGI-I]) were evaluated at baseline (BL) and Week 48 (W48). Normalization (score decrease to 0), improvement (≥1 point decrease), stability (no change), or worsening (≥1 point increase) of total and individual UWDRS III item scores were evaluated at W48.
# [1] = Subpopulation E (incomplete or intolerant responders), Week 48, MMRM
# [2] = Subpopulation E (incomplete or intolerant responders), Week 48, TTM N=79, SoC N=38
substance,measurement,setting,value
bis-choline tetrathiomolybdate [TTM],UWDRS Part III score change (mean),"0-48W, symptomatic patients",−2.91
same,UWDRS symptom: Arising from chair,BL,85
same,UWDRS symptom: Arm and hand Dystonia,BL,64
same,UWDRS symptom: Cervical Dystonia,BL,74
same,UWDRS symptom: Chorea,BL,90
same,UWDRS symptom: Facial Expression,BL,57
same,UWDRS symptom: Finger Taps,BL,44
same,UWDRS symptom: Finger to Nose,BL,67
same,UWDRS symptom: Gait,BL,59
same,UWDRS symptom: Handwriting,BL,55
same,UWDRS symptom: Head Tremor,BL,84
same,UWDRS symptom: Involuntary Crying,BL,99
same,UWDRS symptom: Jaw Tremor,BL,99
same,UWDRS symptom: Leg Ability,BL,62
same,UWDRS symptom: Oculomotor,BL,89
same,UWDRS symptom: Postural Arm Tremor,BL,49
same,UWDRS symptom: Postural Leg Tremor,BL,68
same,UWDRS symptom: Posture,BL,67
same,UWDRS symptom: Pyramidal Signs,BL,89
same,UWDRS symptom: RAM of Hands,BL,48
same,UWDRS symptom: Rigidity,BL,58
same,UWDRS symptom: Speech,BL,44
same,UWDRS symptom: Stereotyped Actions,BL,93
same,UWDRS symptom: Tremor at rest,BL,75
same,UWDRS symptom: Wing-beating tremor,BL,64
same,"UWDRS-III, observed value, Mean (SD)","Baseline, N=220",15.43 (19.833)
same,"UWDRS Part III (0-175), Change from Baseline at 48 weeks, LSM",Study 301 Full Analysis Set,−0.60
same,"UWDRS Part III (0-175), Change from Baseline at 48 weeks, Mean",Study 301 Full Analysis Set,−2.20
same,"UWDRS Part III functional subscale (0-10), Change from Baseline at 48 weeks, LSM",Study 301 Full Analysis Set,0.001
same,"UWDRS Part III functional subscale (0-10), Change from Baseline at 48 weeks, Mean",Study 301 Full Analysis Set,−0.147
same,"UWDRS Part III-arising from chair (0-4), Change from Baseline at 48 weeks, LSM",Study 301 Full Analysis Set,0.0
same,"UWDRS Part III-arising from chair (0-4), Change from Baseline at 48 weeks, Mean",Study 301 Full Analysis Set,0.0
same,"UWDRS Part III-gait (0-10), Change from Baseline at 48 weeks, LSM",Study 301 Full Analysis Set,0.06
same,"UWDRS Part III-gait (0-10), Change from Baseline at 48 weeks, Mean",Study 301 Full Analysis Set,−0.06
same,"UWDRS Part III-handwriting (0-4), Change from Baseline at 48 weeks, LSM",Study 301 Full Analysis Set,−0.1
same,"UWDRS Part III-handwriting (0-4), Change from Baseline at 48 weeks, Mean",Study 301 Full Analysis Set,−0.1
same,"UWDRS Part III-speech (0-4), Change from Baseline at 48 weeks, LSM",Study 301 Full Analysis Set,0.0
same,"UWDRS Part III-speech (0-4), Change from Baseline at 48 weeks, Mean",Study 301 Full Analysis Set,−0.1
same,"UWDRS Part III change from baseline, LSM",[1],−2.52
same,"UWDRS Part III change from baseline, LSM Diff (TTM vs SoC)",[1],−0.53
same,"UWDRS Part III change from baseline, Mean",[2],−2.64
same,"UWDRS Part III change from baseline, Median",[2],−1.00
same,"UWDRS Part III, Change from Baseline, Max",[2],31.0
same,"UWDRS Part III, Change from Baseline, Min",[2],"−28.0,"
same,"UWDRS Part III, Change from Baseline, Q1",[2],"−6.00,"
same,"UWDRS Part III, Change from Baseline, Q3",[2],0.00
same,"UWDRS-III change from baseline, Mean (SD)","TTM exposure 4 weeks, N=215",−0.72 (6.701)
same,"UWDRS Part III (0-175) change from baseline, Mean (SD)",TTM exposure 4 weeks,−0.72 (6.701)
same,"UWDRS Part III Functional Subscale (0-10) change from baseline, Mean (SD)",TTM exposure 4 weeks,−0.072 (0.6009)
same,"UWDRS-III change from baseline, Mean (SD)","TTM exposure 12 weeks, N=204",−1.11 (7.065)
same,"UWDRS Part III (0-175) change from baseline, Mean (SD)",TTM exposure 12 weeks,−1.11 (7.065)
same,"UWDRS Part III Functional Subscale (0-10) change from baseline, Mean (SD)",TTM exposure 12 weeks,−0.137 (0.7864)
same,"UWDRS-III change from baseline, Mean (SD)","TTM exposure 24 weeks, N=182",−0.97 (8.447)
same,"UWDRS Part III (0-175) change from baseline, Mean (SD)",TTM exposure 24 weeks,−0.97 (8.447)
same,"UWDRS Part III Functional Subscale (0-10) change from baseline, Mean (SD)",TTM exposure 24 weeks,−0.157 (0.9091)
same,"UWDRS-III change from baseline, Mean (SD)","TTM exposure 36 weeks, N=156",−2.38 (8.581)
same,"UWDRS Part III (0-175) change from baseline, Mean (SD)",TTM exposure 36 weeks,−2.38 (8.581)
same,"UWDRS Part III Functional Subscale (0-10) change from baseline, Mean (SD)",TTM exposure 36 weeks,−0.286 (0.9929)
same,"UWDRS-III change from baseline, Mean (SD)","TTM exposure 48 weeks, N=156",−3.37 (9.778)
same,"UWDRS Part III (0-175) change from baseline, Mean (SD)",TTM exposure 48 weeks,−3.37 (9.778)
same,"UWDRS Part III Functional Subscale (0-10) change from baseline, Mean (SD)",TTM exposure 48 weeks,−0.345 (1.0940)
same,"UWDRS-III change from baseline, Mean (SD)","TTM exposure 60 weeks, N=141",−2.00 (6.40)
same,"UWDRS Part III (0-175) change from baseline, Mean (SD)",TTM exposure 60 weeks,−2.00 (6.40)
same,"UWDRS Part III Functional Subscale (0-10) change from baseline, Mean (SD)",TTM exposure 60 weeks,−0.422 (1.0814)
same,"UWDRS-III change from baseline, Mean (SD)","TTM exposure 72 weeks, N=125",−4.93 (11.682)
same,"UWDRS Part III (0-175) change from baseline, Mean (SD)",TTM exposure 72 weeks,−4.93 (11.682)
same,"UWDRS Part III Functional Subscale (0-10) change from baseline, Mean (SD)",TTM exposure 72 weeks,−0.494 (1.2826)
same,"UWDRS-III change from baseline, Mean (SD)","TTM exposure 96 weeks, N=66",−7.95 (14.078)
same,"UWDRS Part III (0-175) change from baseline, Mean (SD)",TTM exposure 96 weeks,−7.95 (14.078)
same,"UWDRS Part III Functional Subscale (0-10) change from baseline, Mean (SD)",TTM exposure 96 weeks,−0.900 (1.5193)
same,"UWDRS-III change from baseline, Mean (SD)","TTM exposure 120 weeks, N=50",−8.92 (15.045)
same,"UWDRS Part III (0-175) change from baseline, Mean (SD)",TTM exposure 120 weeks,−8.92 (15.045)
same,"UWDRS Part III Functional Subscale (0-10) change from baseline, Mean (SD)",TTM exposure 120 weeks,−0.946 (1.7746)
same,"UWDRS-III change from baseline, Mean (SD)","TTM exposure 144 weeks, N=42",−9.78 (15.423)
same,"UWDRS Part III (0-175) change from baseline, Mean (SD)",TTM exposure 144 weeks,−9.78 (15.423)
